Results on 13 compounds are retold here after patent US10414150B2, “Active-energy-ray-curable composition, composition stored container, two-dimensional or three-dimensional image forming apparatus, method for forming two-dimensional or three-dimensional image, and cured product” (Ricoh Company, Ltd., priority 2015, dated 2019).

Read-outs that look alike come from different tables or passages of the source.

The conditions of series [1]: negative = satisfies at least one of (1) LLNA SI less than 3, (2) MSDS, (3) reference; cited from earlier work.
For series [2] the following is noted: test method: maximization method; cited from earlier work.
For series [3] the following is noted: cited from earlier work.
Series [4] concerns Female mice. The series is described as follows: Skin sensitization test by LLNA (Local Lymph Node Assay) method, SI value. Format: in vivo. To be noted: test substance 50.0 w/v % in acetone:olive oil 4:1, 25 μL/auricle, once/day × 3 days, SI less than 3 = negative.
Method: In the (1), it is judged that a compound is negative in skin sensitization when the SI value of the compound is less than 3, as described in the journal of “Function and Materials”, September, 2005, volume 25, No. 9, on page 55. The lower the SI value is, the lower skin sensitization is.
The SI value was measured by a skin sensitization test by LLNA (Local Lymph Node Assay) method as described below.
α-Hexyl cinnamaldehyde (HCA, available from Wako Pure Chemical Industries, Ltd.) was used as the positive control substance.
A mixture liquid obtained by mixing acetone (available from Wako Pure Chemical Industries, Ltd.) and an olive oil (available from Fujimi Pharmaceutical Co., Ltd.) at a volume ratio (acetone:olive oil) of 4:1 was used as the medium. […]
Based on the body weights of the animals measured two days before sensitization was started, the animals were divided into two groups (4 mice/group) in a manner that the body weight of each individual would be within ±20% of the average body weight of the whole group according to a body weight stratified random sampling method. […]
About twenty four hours after the BrdU administration, the animals were euthanized, and the auricular lymph nodes were extracted. […] The average value and standard error of the weight of the auricular lymph nodes per group were calculated. […]
For series [5] the following is noted: test method: OECD Test Guideline 406; cited from earlier work.

Take `CCC(Cc1ccc(C)cc1)(C(=O)c1ccc(N2CCOCC2)cc1)N(C)C` (stereo not shown) [2-dimethylamino-2-(4-methylbenzyl)-1-(4-morpholin-4-yl-phenyl)butan-1-one]: the “Skin sensitization” value in series [1] was “negative”.

On to `C=C(C)C(=O)OC(C)(C)C` [Example A2, t-butyl methacrylate], for which, in series [2], the “Skin sensitization evaluated according to the reference” value is recorded as “negative”. Further, in series [1], the “Skin sensitization” value is “negative”. The Vapor pressure in series [3] (18.5° C.) is given as 700 Pa.

As to `C=C(C)C(=O)OCCCCC` [Example A3, n-Pentyl methacrylate], the “Skin sensitization evaluated according to the reference” value in series [2] is recorded as “negative”. The “Skin sensitization” value in series [1] was “negative”. Further, the Vapor pressure in series [3] (25° C.) was 69.1 Pa.

As to `C=C(C)C(=O)OCCCCCC` [Example A4, n-Hexyl methacrylate], in series [2], the “Skin sensitization evaluated according to the reference” value is reported as “negative”. Further, the “Skin sensitization” value in series [1] was “negative”. The Vapor pressure in series [3] (20° C.) was 34.7 Pa.

With `C=C(C)C(=O)OCC(CO)OC(=O)C(=C)C` (stereo not shown) [Example B2, Glycerol dimethacrylate], the “SI value (Stimulation Index) measured by LLNA test” value in series [4] stood at 1.2. Further, the “Skin sensitization” value in series [1] was “negative”.

As for `C=C(C)C(=O)OCC(CC)(COC(=O)C(=C)C)COC(=O)C(=C)C` [Example B6, Trimethylolpropane trimethacrylate], the “SI value (Stimulation Index) measured by LLNA test” value in series [4] came to 1.9.

Regarding `O=C(c1ccccc1)C1(O)CCCCC1` [Example C1, 1-Hydroxy-cyclohexyl phenyl ketone], in series [1], the “Skin sensitization” value is “negative”. Moreover, the “Skin sensitization evaluated according to the MSDS” value in series [5] is listed as “nothing”.

For the compound `CCC(Cc1ccc(C)cc1)(C(=O)c1ccc(N2CCOCC2)cc1)N(C)C` (stereo not shown) [Example C2, 2-Dimethylamino-2-(4-methylbenzyl)-1-(4-morpholin-4-yl-phenyl)butan-1-one], the “Skin sensitization evaluated according to the MSDS” value in series [5] is given as “nothing”.

With `CSc1ccc(C(=O)C(C)(C)N2CCOCC2)cc1` [Example C3, 2-[4-(Methylthio)benzoyl]-2-(4-morpholinyl)propane], the “Skin sensitization evaluated according to the MSDS” value in series [5] was “nothing”.

As to `C=CC(=O)OCc1ccccc1` [benzyl acrylate, reference compound], in series [1], the “Skin sensitization” value was “positive”. The Vapor pressure in series [3] (25° C.) is reported as 9.7 Pa.

As for “Caprolactone-modified dipentaerythritolhexaacrylate [Example B5]”, in series [1], the “Skin sensitization” value was “negative”.

Take polyethylene glycol dimethacrylate: the “Skin sensitization” value in series [1] is on record as “negative”.

Turning to “tricyclodecane dimethanol dimethacrylate”, the “Skin sensitization” value in series [1] is recorded as “negative”.
